From patent publication US12102646B2, “Compositions for the treatment of fibrosis and inflammation” (Viking Therapeutics, Inc., priority 2018, dated 2024)

Key:
Format in all cases: in vivo
DIO-NASH mice = assay: DIO-NASH mice, 8 weeks oral once-daily treatment, liver fibrosis read-outs (Example 1); details: for proportion of animals with reduction in fibrosis score post-treatment: compared with mock treated animals; for liver Picro-Sirius Red (PSR) staining (collagen 1 and 3): terminal liver sections, morphometry, Compound 1 vs mock, Compound 2 vs control- or mock-treated
Experimental: DIO-NASH mice were acclimatized for 3 weeks, with pre-treatment liver biopsy samples collected prior to acclimatization. Mice were randomly assigned to one of five dosing groups, with 12 mice per group. Assigned dosages were: Compound 2 (low): 3 mg/kg; Compound 2 (high): 10 mg/kg; Compound 1: 10 mg/kg; and Elafibranor (30 mg/kg). One group was mock treated with vehicle only as a control. Dosage forms were administered orally once per day. After 8 weeks, animals were sacrificed and liver samples were taken. Liver samples were assayed for total liver hydroxyproline, and subjected to immunohistochemical observation for fibrosis stage as well as the extent of ColaI (Collagen Type Ia) staining. […] Since hydroxyproline is a significant component of collagen, and collagen is the most significant source of hydroxyproline in animal tissues, levels of hydroxyproline provide a reliable proxy for the presence of collagen in a sample.
Terminal liver biopsy samples were also subjected to histochemical staining and immunohistochemical staining. Representative images of liver stained with Picro-Sirius Red (to visualize collagen I and III deposition, red stain) at the end of the treatment period following 8 weeks of treatment with vehicle, low dose Compound 2, high dose Compound 2, Compound 1, or elafibranor are shown in FIG. 2. […] Representative images of liver stained with anti-type I collagen (col1a1) (Southern Biotech, Cat. 131001) at the end of the treatment period following 8 weeks of treatment with vehicle, low dose Compound 2, high dose Compound 2, Compound 1, or elafibranor are shown in FIG. 3. The extent of Col1A1 content was calculated as the total liver Col1A1 staining in terminal liver biopsy samples.
Fibrosis scores were also calculated based on observation of terminal liver biopsy samples.

[1] = tested on: diet-induced NASH mouse model; assay: diet-induced NASH mouse model, 8 weeks dosing, liver/plasma biochemistry and histology (Example 6); details: for total liver galectin-3: compared to vehicle, 8 weeks dosing, FIG. 9
Experimental: (§1) Compound 2 was evaluated in a diet-induced NASH mouse model (See, e.g., Hansen, H. et al., Drug Discovery Today 22(17):1701-1718 (2017) which is hereby incorporated by reference with respect to its disclosure of diet-induced, genetic, chemical, and other NASH mouse models). […] Animals were biopsied pre-study, and only animals with NASH and fibrosis were selected for study. Selected animals were acclimatized and randomized, with experimental groups of 11-12 animals per cohort receiving oral dosing of compound 2 according to the following schedules: Daily dosing for 8 weeks; or daily dosing for week 0-1 followed by weekly dosing for weeks 2-8. At week 8, animals were sacrificed and tissues analyzed. Plasma enzymes (P-ALT (alanine aminotransferase) and P-AST (aspartate aminotransferase)), total plasma triglycerides, and total plasma cholesterol were measured, and terminal necropsy of each liver was carried out, assaying total liver biochemistry including total liver triglycerides, and total liver cholesterol, as well as histological evaluation of NAFLD activity score (done pre- and post-treatment), fibrosis stage (also done pre- and post-treatment), steatosis, Col1a1 level, and galactin-3 level. Tissue samples were preserved for characterization using RNAseq; RNAseq was used to determine expression levels for genes showing differential expression in compound 2-treated vs. vehicle treated animals and/or genes known to be implicated in fibrosis. Additionally, expression levels for genes known to be implicated in inflammation, such as ANXA2, were determined in compound 2-treated vs. vehicle treated animals.

[2] = tested on: pro-fibrotic and pro-inflammatory genes (Col1a1, Col3a1, ACTA2, LGALS1, ENPP2, ANXA2); assay: RNAseq liver gene expression in diet-induced NASH mouse model (Example 6); design: concentration or dose not given beside the values
Experimental: as §1

[3] = tested on: Dunkin-Hartley guinea pigs with pulmonary fibrosis; assay: bleomycin-induced pulmonary fibrosis in guinea pigs (Example 2); details: lungs; relative to levels prior to administration; 6-10 weeks
Experimental: Pulmonary fibrosis is induced in healthy male Dunkin-Hartley guinea pigs by administering bleomycin intratracheally. Control subjects are developed by intratracheal administration of saline solution. After the establishment of pulmonary fibrosis in the bleomycin treated animals, test articles comprising any one of Compounds 1-4, or any other compound disclosed herein, are administered to each subject as appropriate for its formulation, daily or as appropriate, for 6-10 weeks. Unilateral lung biopsies are taken prior to the first administration of the test articles and again after sacrifice following the last administration of the test articles. Biopsy samples are analyzed as described in Example I, with the addition of immunohistochemical staining for type III collagen. Lungs from animals treated with the compounds disclosed herein, especially those animals treated with Compound 2, show reduced levels of hydroxyproline, decreased Collagen III staining, and decreased fibrosis score relative to the levels shown prior to the administration of the test articles. Mock treated animals show little or no reduction in fibrosis, hydroxyproline content, or Collagen III content.

[4] = tested on: nude mice with palmar fascia fibrosis; assay: palmar fascia fibrosis in nude mice (second Example 2); details: relative to levels prior to administration, 6-10 weeks
Source text: Palmar fascia fibrosis is induced in nude mice by introducing fibroblasts from fibrotic cords of Dupuytren's disease patients as described in Stish, L. et al., BMC Musculoskelet. Disord. 16: 138-148 (2015) which is hereby incorporated by reference with respect to its description of the establishment of an animal model system for the study of palmar fascia fibrosis. After the establishment of palmar fascia fibrosis in the fibroblast treated animals, test articles comprising any one of Compounds 1-4, or any other compound disclosed herein, are administered to each subject as appropriate for its formulation, daily or as appropriate, for 6-10 weeks. Unilateral forepaw biopsies are taken prior to the first administration of the test articles and again after sacrifice following the last administration of the test articles. Biopsy samples are analyzed as described in Example I, with the addition of immunohistochemical staining for type III collagen. Palmar fascia from animals treated with the compounds disclosed herein, especially those animals treated with Compound 2, show reduced levels of hydroxyproline, decreased Collagen III staining, and decreased fibrosis score relative to the levels shown prior to the administration of the test articles. Mock treated animals show little or no reduction in fibrosis, hydroxyproline content, or Collagen III content.

[5] = tested on: Sprague-Dawley Rats or C57BL mice with hypertrophic skin lesions; assay: hypertrophic skin lesions in rats or mice (Example 3); details: injection site skin samples; relative to levels prior to administration; 6-10 weeks
Source text: Hypertrophic skin lesions are induced in Sprague-Dawley Rats by subcutaneous injection of capsaicin as described in Wallengren, J. et al., Skin Pharm. Appl. Skin Physiol. 15(3):154-165(2002), which is hereby incorporated by reference with respect to its description of the induction of hypertrophic skin lesions in rats; or in C57BL or other appropriate strain mice by subcutaneous administration of CCl4 and/or bleomycin, as described in Alonso-Merino et al., Proc. Nat. Acad. Sci. 113(24):E3451-60 (2016), which is incorporated herein for its disclosure of the induction of fibrotic skin lesions in mice. After the establishment of hypertrophic skin lesions in the capsaicin, CCl4 and/or bleomycin treated animals, test articles comprising any one of Compounds 1-4, or any other compound disclosed herein, are administered to each subject animal as appropriate for its formulation, daily or as appropriate, for 6-10 weeks. Skin biopsies from the injection site are taken prior to the first administration of the test articles and again after sacrifice following the last administration of the test articles. Biopsy samples are analyzed as described in Example I, with the addition of immunohistochemical staining for type III collagen. Injection site skin samples from animals treated with the compounds disclosed herein, especially those animals treated with Compound 2, show reduced levels of hydroxyproline, decreased Collagen III staining, and decreased fibrosis score relative to the levels shown prior to the administration of the test articles. Mock treated animals show little or no reduction in fibrosis, hydroxyproline content, or Collagen III content.

[6] = tested on: Agl-/- mice that manifest GSD-3-like hepatic symptoms; assay: GSD-3-like Agl-/- mice (Example 4); details: liver samples; relative to levels prior to administration; 6-10 weeks
Experimental: (§2) Glucose-6-phosphatase-α deficient mice that manifest GSD-3-like hepatic symptoms, including hypercholesterolemia and hyperlipidemia (Agl−/−, see e.g. Liu, K. M. et al., Mol. Genet. Metabol. 111(4):467-76 (2014)) are treated with test articles comprising any one of Compounds 1-4, or any other compound disclosed herein, administered to each subject as appropriate for its formulation, daily or as appropriate, for 6-10 weeks. Liver biopsies are taken prior to the first administration of the test articles and again after sacrifice following the last administration of the test articles. Biopsy samples are analyzed as described in Example I. Liver samples from animals treated with the compounds disclosed herein, especially those animals treated with Compound 2, show reduced levels of hydroxyproline, decreased Collagen I staining, and decreased fibrosis score relative to the levels shown prior to the administration of the test articles. Mock treated animals show little or no reduction in fibrosis, hydroxyproline content, or Collagen I content.

[7] = tested on: Phosphorylase kinase deficient mice (PhKc-/-); assay: GSD-8/9-like PhKc-/- mice (Example 5); details: liver samples; relative to levels prior to administration; 6-10 weeks
Experimental: as §2, with “Phosphorylase kinase” for “Glucose-6-phosphatase-α”, “GSD-8/9-like” for “GSD-3-like”, “(PhKc−/−, see, e.g., Varsanyi,” for “(Agl−/−, see e.g. Liu, K.”, “Biochem.” for “Mol.”, “18(3-4):247-61 (1980)),” for “Metabol. 111(4):467-76 (2014))”

[8] = relative to pre-treatment samples, 8 weeks, FIG. 7
[9] = treatment groups relative to untreated controls, week 8, oral
[10] = post-treatment liver, 8 weeks, FIG. 8

Compound: Cc1cc(OCP2(=O)OCC[C@@H](c3cccc(Cl)c3)O2)cc(C)c1Cc1ccc(O)c(C(C)C)c1 (stereo partly shown) [Compound 2]
- animals showing increases in fibrosis score post-treatment (DIO-NASH mice; 8 weeks): No
- proportion of animals with reduction in fibrosis score post-treatment (DIO-NASH mice; 8 weeks): higher
- total liver Col1A1 content (DIO-NASH mice; terminal liver biopsy, anti-type I collagen staining, vs control-treated or mock-treated animals, 8 weeks): lower
- liver Picro-Sirius Red (PSR) staining (collagen 1 and 3) (DIO-NASH mice; 8 weeks oral once per day): lower
- total liver hydroxyproline levels (DIO-NASH mice; vs control-treated (elafibranor) or mock-treated animals, 8 weeks oral once per day, Compound 2 3 and 10 mg/kg): lower
- toxicity ([1]; 8 weeks oral dosing): No significant toxicity
- total liver galectin-3 [1]: reduction
- reduction in fibrosis (fibrosis score) [1, 8]: 50.2%
- reduction in hydroxyproline [1, 8]: 46.3%
- reduction in type 1 collagen deposition [1, 8]: 60.2%
- liver cholesterol [1, 9]: Significant reductions
- liver triglycerides [1, 9]: Significant reductions
- NAS scores ([1]; week 8, oral): significant improvements
- total lipid content in the liver, reduction ([1]; week 8, oral, FIG. 6): approximately 80%
- ACTA2 Change versus Vehicle Control ([2]; 8-week dosing, fibrosis marker): −37.0%
- Col1a1 Change versus Vehicle Control ([2]; 8-week dosing, fibrosis marker): −36.3%
- Col3a1 Change versus Vehicle Control ([2]; 8-week dosing, fibrosis marker): −27.1%
- ENPP2 Change versus Vehicle Control ([2]; 8-week dosing, fibrosis marker): −56.3%
- LGALS1 Change versus Vehicle Control ([2]; 8-week dosing, fibrosis marker): −64.7%
- ANXA2 Change versus Vehicle Control ([2]; 8-week dosing, inflammatory marker): −40.3%
- expression of pro-inflammatory gene ANXA2 reduced by ([2]; post-treatment liver, 8 weeks): 40.3%
- expression of ACTA2 (αSMA) reduced by [2, 10]: 37%
- expression of Col1a1 reduced by [2, 10]: 36.3%
- expression of Col3a1 reduced by [2, 10]: 27.1%
- expression of LGALS1 (Galectin 1) reduced by [2, 10]: 64.7%
- Collagen III staining [3]: decreased
- fibrosis score [3]: decreased
- levels of hydroxyproline [3]: reduced
- Collagen III staining [4]: decreased
- fibrosis score [4]: decreased
- levels of hydroxyproline [4]: reduced
- Collagen III staining [5]: decreased
- fibrosis score [5]: decreased
- levels of hydroxyproline [5]: reduced
- Collagen I staining [6]: decreased
- fibrosis score [6]: decreased
- levels of hydroxyproline [6]: reduced
- Collagen I staining [7]: decreased
- fibrosis score [7]: decreased
- levels of hydroxyproline [7]: reduced

Compound: Cc1cc(OCP(=O)(OCOC(=O)C(C)(C)C)OCOC(=O)C(C)(C)C)cc(C)c1Cc1ccc(O)c(Cc2ccccc2)c1 [Compound 1]
- proportion of animals with reduction in fibrosis score post-treatment (DIO-NASH mice; 8 weeks): higher
- liver Picro-Sirius Red (PSR) staining (collagen 1 and 3) (DIO-NASH mice; 8 weeks oral once per day): lower
- total liver galectin-3 [1]: reduction
- ACTA2 Change versus Vehicle Control ([2]; 8-week dosing, fibrosis marker): −30.5%
- ENPP2 Change versus Vehicle Control ([2]; 8-week dosing, fibrosis marker): −44.1%
- LGALS1 Change versus Vehicle Control ([2]; 8-week dosing, fibrosis marker): −35.1%
